Measurements as given in the supplement of paper PMC10307832.

Columns and labels:
Assay in all cases: relative viability (nuclei count vs DMSO), 5 days (fraction); higher = more cells survive
[1] = compound: O=C(/C=C/c1cccnc1)NCCCCC1CCN(C(=O)c2ccccc2)CC1 [Daporinad] + CC(=O)Nc1cccc(-n2c(=O)n(C3CC3)c(=O)c3c(Nc4ccc(I)cc4F)n(C)c(=O)c(C)c32)c1 [Trametinib] (partner 0.02 µM)
Summary of the method: (§1)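 Relative viability equals treated-well nuclei counts divided by vehicle-well nuclei counts. Counts came from 4× images of lung cancer cell lines grown in 1536-well plates for 5 days after pin-tool dosing on the day after seeding. Dosing used one drug alone or a fixed anchor-drug dose plus five library-drug doses (not always all listed) in √10 steps, and values are medians of duplicate plates.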

[2] = compound: O=C(/C=C/c1cccnc1)NCCCCC1CCN(C(=O)c2ccccc2)CC1 [Daporinad] + CS(=O)(=O)N1CCN(Cc2cc3nc(-c4cccc5[nH]ncc45)nc(N4CCOCC4)c3s2)CC1 [Pictilisib] (partner 1 µM)
Summary of the method: as §1

[3] = compound: COc1cc(Nc2ncc(F)c(Nc3ccc4c(n3)NC(=O)C(C)(C)O4)n2)cc(OC)c1OC [R406] + Cc1nc(Nc2ncc(C(=O)Nc3c(C)cccc3Cl)s2)cc(N2CCN(CCO)CC2)n1 [Dasatinib] (partner 0.075 µM)
Summary of the method: as §1

[4] = compound: O=C(/C=C/c1cccnc1)NCCCCC1CCN(C(=O)c2ccccc2)CC1 [Daporinad] + COc1cc2c(Oc3ccc(NC(=O)C4(C(=O)Nc5ccc(F)cc5)CC4)cc3F)ccnc2cc1OCCCN1CCOCC1 [Foretinib] (partner 0.25 µM)
Summary of the method: as §1

| Cell Line | relative viability ([1]; first compound 0.0005 µM) | relative viability ([1]; first compound 0.001581 µM) | relative viability ([1]; first compound 0.005 µM) | relative viability ([1]; first compound 0.01581 µM) | relative viability ([2]; first compound 0.0005 µM) | relative viability ([2]; first compound 0.001581 µM) | relative viability ([2]; first compound 0.005 µM) | relative viability ([2]; first compound 0.01581 µM) | relative viability ([3]; first compound 0.08 µM) | relative viability ([3]; first compound 0.253 µM) | relative viability ([3]; first compound 0.8 µM) | relative viability ([3]; first compound 2.53 µM) | relative viability ([3]; first compound 8 µM) | relative viability ([4]; first compound 0.0005 µM) | relative viability ([4]; first compound 0.001581 µM) | relative viability ([4]; first compound 0.005 µM) | relative viability ([4]; first compound 0.01581 µM) |
| --- | --- | --- | --- | --- | --- | --- | --- | --- | --- | --- | --- | --- | --- | --- | --- | --- | --- |
| HCC-44 | 1.02 | 1.15 | 1.08 | 1.07 | 0.643 | 0.658 | 0.706 | 0.657 |  |  |  |  |  |  |  |  |  |
| HCC-827 | 0.498 | 0.508 | 0.553 | 0.552 | 1.12 | 0.994 | 1.23 | 1.01 | 0.309 | 0.252 | 0.325 | 0.312 | 0.229 | 0.984 | 1.14 | 1.1 | 1.11 |
| NCI-H2342 | 1.04 | 0.82 | 0.782 | 0.844 |  |  |  |  | 0.309 | 0.321 | 0.341 | 0.303 | 0.277 | 1.09 | 0.974 | 1.01 | 0.969 |
| NCI-H2347 | 0.301 | 0.288 | 0.281 | 0.329 | 0.636 | 0.788 | 0.711 | 0.685 | 0.322 | 0.339 | 0.324 | 0.319 | 0.299 | 1.13 | 1.17 | 1.35 | 1.33 |
| PC-3 [JPC-3] | 0.667 | 0.714 | 0.758 | 0.842 | 0.703 | 0.987 | 0.824 | 0.659 | 0.951 | 1.09 | 1.27 | 0.915 | 0.737 | 0.978 | 1.03 | 1.12 | 1.05 |
| NCI-H1651 | 0.854 | 0.825 | 0.823 | 0.757 | 0.642 | 0.683 | 0.629 | 0.601 | 0.402 | 0.468 | 0.451 | 0.221 | 0.198 | 0.722 | 0.769 | 0.623 | 0.595 |
| HARA | 0.833 | 0.761 | 0.627 | 0.403 | 0.329 | 0.568 | 0.436 | 0.371 | 0.235 | 0.267 | 0.296 | 0.248 | 0.113 | 0.942 | 0.98 | 0.922 | 0.279 |
| NCI-H1650 | 0.565 | 0.628 | 0.635 | 0.572 | 0.503 | 0.727 | 0.715 | 0.733 | 0.302 | 0.362 | 0.288 | 0.16 | 0.168 | 1.29 | 1.21 | 1.13 | 0.498 |
| NCI-H1395 | 1.04 | 1.04 | 1.14 | 1.06 | 0.615 | 0.697 | 0.574 | 0.674 | 0.441 | 0.444 | 0.434 | 0.399 | 0.356 | 1.08 | 0.954 | 1.01 | 1.15 |
| NCI-H441 | 0.351 | 0.426 | 0.496 | 0.573 | 0.435 | 0.631 | 0.588 | 0.507 | 0.669 | 0.659 | 0.851 | 0.429 | 0.318 | 1.24 | 0.997 | 1.19 | 0.911 |
| LU99A | 0.511 | 0.562 | 0.598 | 0.613 | 0.312 | 0.383 | 0.392 | 0.306 | 0.553 | 0.607 | 0.548 | 0.377 | 0.271 | 0.774 | 0.807 | 0.796 | 0.772 |
| NCI-H1355 | 0.409 | 0.465 | 0.298 | 0.557 | 0.417 | 0.549 | 0.628 | 0.576 | 0.754 | 0.79 | 0.777 | 0.491 | 0.32 | 0.997 | 1.01 | 1.06 | 1.02 |
| HCC-78 | 0.68 | 0.821 | 0.71 | 1.1 | 0.217 | 0.145 | 0.166 | 0.259 | 0.362 | 0.335 | 0.4 | 0.307 | 0.237 | 0.54 |  | 0.594 | 0.62 |
| NCI-H1563 |  |  |  |  | 0.639 | 0.642 | 0.605 | 0.701 | 0.438 | 0.507 | 0.448 | 0.473 | 0.376 | 0.893 | 0.972 | 0.999 | 0.86 |
| HCC-15 | 0.339 | 0.429 | 0.39 | 0.418 | 0.664 | 0.8 | 0.79 | 0.856 | 0.629 | 0.735 | 0.662 | 0.602 | 0.331 | 0.916 | 1.22 | 1.12 | 1.12 |
| EKVX | 0.288 | 0.329 | 0.43 | 0.372 | 0.478 | 0.432 | 0.412 | 0.464 | 0.626 | 0.32 | 0.511 | 0.402 | 0.367 | 0.747 | 0.443 | 0.877 | 0.756 |
| NCI-H2087 | 0.18 | 0.213 | 0.263 | 0.22 | 0.877 | 1.1 | 0.951 | 0.907 | 0.782 | 0.903 | 1.15 |  | 0.481 | 1.1 | 1.3 | 1.19 | 0.978 |
| LK-2 | 0.783 | 0.795 | 0.764 | 0.283 | 0.605 | 0.689 | 0.46 | 0.354 | 0.26 | 0.303 | 0.285 | 0.346 | 0.201 | 1.08 | 1.54 | 1.29 | 0.308 |
| NCI-H1437 | 0.444 | 0.544 | 0.551 | 0.518 | 0.418 | 0.527 | 0.433 | 0.553 | 0.439 | 0.408 | 0.369 | 0.286 | 0.131 | 1.17 | 1.24 | 1.34 | 1.22 |
| COR-L23 | 0.577 | 0.662 | 0.737 | 0.302 | 0.777 | 0.952 | 0.721 | 0.368 | 0.464 | 0.469 | 0.598 | 0.379 | 0.158 | 0.993 | 1.01 | 1.14 | 0.282 |
